Experiments:
[1] = biological target: T1, HDAC7 (Homo sapiens, UniProt Q8WUI4); test: In vitro HDAC enzyme inhibition assay, HDAC7; assay type: biochemical; details: for HDAC7/HDAC6 in vitro selectivity: ratio of IC50 for HDAC7 relative to that of HDAC6; for IC50: recombinant full-length HDAC7, substrate MAZ1675 22 μM; for selectivity toward HDAC6 compared to HDAC7 (in words): tested in vitro
T1 construct: Recombinant, full-length HDAC protein (BPS Biosciences) was incubated with fluorophore conjugated substrate; purchased BPS Biosciences
T1 sequence (Q8WUI4 1-952): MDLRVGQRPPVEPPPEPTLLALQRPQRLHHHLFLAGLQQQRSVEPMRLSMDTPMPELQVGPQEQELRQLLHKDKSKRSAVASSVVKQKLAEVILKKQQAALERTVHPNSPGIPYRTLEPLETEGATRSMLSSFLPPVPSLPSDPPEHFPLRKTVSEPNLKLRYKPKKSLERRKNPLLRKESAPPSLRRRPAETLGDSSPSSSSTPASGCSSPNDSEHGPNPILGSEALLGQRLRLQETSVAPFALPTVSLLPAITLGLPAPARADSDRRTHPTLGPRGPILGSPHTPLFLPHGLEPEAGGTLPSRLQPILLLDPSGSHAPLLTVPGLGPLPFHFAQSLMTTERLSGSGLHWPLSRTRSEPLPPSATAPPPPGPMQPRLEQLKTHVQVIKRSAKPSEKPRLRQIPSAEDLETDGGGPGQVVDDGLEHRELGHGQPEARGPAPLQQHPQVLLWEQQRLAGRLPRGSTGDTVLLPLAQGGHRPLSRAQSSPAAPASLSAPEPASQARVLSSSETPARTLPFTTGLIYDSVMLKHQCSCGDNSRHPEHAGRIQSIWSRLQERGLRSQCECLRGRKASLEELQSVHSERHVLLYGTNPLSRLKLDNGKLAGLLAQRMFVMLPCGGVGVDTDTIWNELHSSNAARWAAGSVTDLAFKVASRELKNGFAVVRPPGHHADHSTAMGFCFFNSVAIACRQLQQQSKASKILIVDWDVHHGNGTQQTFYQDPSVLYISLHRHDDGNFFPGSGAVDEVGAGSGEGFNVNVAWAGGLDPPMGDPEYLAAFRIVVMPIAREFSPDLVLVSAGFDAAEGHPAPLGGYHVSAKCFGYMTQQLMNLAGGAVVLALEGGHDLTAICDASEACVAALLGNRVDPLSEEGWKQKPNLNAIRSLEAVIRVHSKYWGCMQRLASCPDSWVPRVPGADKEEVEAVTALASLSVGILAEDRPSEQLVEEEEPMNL
Protocol: (§1) In vitro Histone Deacetylase enzyme assays were performed using Class I (isoforms: HDAC1, HDAC2, HDAC3 and HDAC8), class IIa (isoforms: HDAC4, HDAC5, HDAC7 and HDAC9) and class IIb (isoform HDAC6).
(§2) HDAC activities were determined in vitro with an optimized homogenous assay performed in a 384-well plate. Recombinant, full-length HDAC protein (BPS Biosciences) was incubated with fluorophore conjugated substrate, MAZ1600 and MAZ1675, at Km=[S]. […] Reactions were performed in assay buffer (50 mM HEPES, 100 mM KCl, 0.001% Tween-20, 0.05% BSA, 200 μM tris(2-carboxyethyl)phosphine (TCEP), pH 7.4) and followed for fluorogenic release of 7-amino-4-methylcoumarin from substrate upon deacetylase and trypsin enzymatic activity. Fluorescence measurements were obtained every five minutes using a multilabel plate reader and plate-stacker (Envision; Perkin-Elmer). Each plate was analyzed by plate repeat, and the first derivative within the linear range was imported into analytical software (Spotfire DecisionSite and GraphPad Prism). Replicate experimental data from incubations with inhibitor were normalized to controls.

[2] = biological target: T2, HDAC2 (Homo sapiens, UniProt Q92769); test: In vitro HDAC enzyme inhibition assay, HDAC2; assay type: biochemical; details: for HDAC2/HDAC6 in vitro selectivity: ratio of IC50 for HDAC2 relative to that of HDAC6; for IC50: recombinant full-length HDAC2, substrate MAZ1600 22 μM
T2 construct: Recombinant, full-length HDAC protein (BPS Biosciences) was incubated with fluorophore conjugated substrate; purchased BPS Biosciences
Protocol: as §1, §2

T2 sequence (Q92769 whole entry): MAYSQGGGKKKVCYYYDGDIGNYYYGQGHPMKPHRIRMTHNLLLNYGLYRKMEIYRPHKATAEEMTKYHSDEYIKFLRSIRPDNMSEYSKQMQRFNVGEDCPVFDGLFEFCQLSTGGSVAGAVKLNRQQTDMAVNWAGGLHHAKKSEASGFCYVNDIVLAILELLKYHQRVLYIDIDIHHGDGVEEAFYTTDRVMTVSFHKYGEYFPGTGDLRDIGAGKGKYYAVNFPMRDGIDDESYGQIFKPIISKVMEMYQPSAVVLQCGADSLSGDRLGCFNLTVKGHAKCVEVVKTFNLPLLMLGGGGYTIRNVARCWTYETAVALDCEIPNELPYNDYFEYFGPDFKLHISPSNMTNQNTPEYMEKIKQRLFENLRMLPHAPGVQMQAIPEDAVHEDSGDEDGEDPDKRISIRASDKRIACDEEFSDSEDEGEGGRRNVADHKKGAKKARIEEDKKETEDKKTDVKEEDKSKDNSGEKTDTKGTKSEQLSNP

HDAC7/HDAC6 in vitro selectivity [1]	IC50 [1] [nM]	HDAC2/HDAC6 in vitro selectivity [2]	IC50 [2] [nM]	SMILES	selectivity toward HDAC6 compared to HDAC7 (in words) [1]
9286	148	4884	78.1	O=C(NO)c1ccc(Cn2nnc3ccccc32)cc1 [C1, 4-((1H-benzo[d][1,2,3]triazol-1-yl)methyl)-N-hydroxybenzamide]	–
3153	79.6	210	5.3	O=C(NO)c1ccc(Cn2c(=O)[nH]c3cc(Cl)ccc32)cc1 [B4, 4-((5-chloro-2-oxo-2,3-dihydro-1H-benzo[d]imidazol-1-yl)methyl)-N-hydroxybenzamide]	–
15934	410	991	25.5	COc1ccc2c(c1)[nH]c(=O)n2Cc1ccc(C(=O)NO)cc1 [B7, N-hydroxy-4-((5-methoxy-2-oxo-2,3-dihydro-1H-benzo[d]imidazol-1-yl)methyl)benzamide]	–
9297	190	444	9.09	O=C(NO)c1ccc(Cn2c(=O)[nH]c3cc(Br)ccc32)cc1 [B5, 4-((5-bromo-2-oxo-2,3-dihydro-1H-benzo[d]imidazol-1-yl)methyl)-N-hydroxybenzamide]	–
38222	237	1754	10.9	O=C(NO)c1ccc(Cn2c(=O)[nH]c3cc(C(F)(F)F)ccc32)cc1 [B6, N-hydroxy-4-((2-oxo-5-(trifluoromethyl)-2,3-dihydro-1H-benzo[d]imidazol-1-yl)methyl)benzamide]	–
11817	305	3277	84.5	O=C(NO)c1ccc(Cn2nnc3cc(Br)ccc32)cc1 [C5, 4-((5-bromo-1H-benzo[d][1,2,3]triazol-1-yl)methyl)-N-hydroxybenzamide]	–
30509	443	6974	101	O=C(NO)c1ccc(Cn2c(=O)[nH]c3ccccc32)cc1 [B1, N-hydroxy-4-((2-oxo-2,3-dihydro-1H-benzo[d]imidazol-1-yl)methyl)benzamide]	exceptionally high selectivity (Inhibitors with in vitro selectivity values for HDAC6 of at least 30,000 are considered to have exceptionally high selectivity toward HDAC6)
21126	555	10108	266	O=C(NO)c1ccc(Cn2nnc3cc(F)ccc32)cc1 [C3, 4-((5-fluoro-1H-benzo[d][1,2,3]triazol-1-yl)methyl)-N-hydroxybenzamide]	–
55678	159	4997	14.3	Cc1ccc2c(c1)[nH]c(=O)n2Cc1ccc(C(=O)NO)cc1 [B2, N-hydroxy-4-((5-methyl-2-oxo-2,3-dihydro-1H-benzo[d]imidazol-1-yl)methyl)benzamide]	exceptionally high selectivity (Inhibitors with in vitro selectivity values for HDAC6 of at least 30,000 are considered to have exceptionally high selectivity toward HDAC6)
7608	420	2562	141	O=C(NO)c1ccc(Cn2nnc3cc(Cl)ccc32)cc1 [C4, 4-((5-chloro-1H-benzo[d][1,2,3]triazol-1-yl)methyl)-N-hydroxybenzamide]	–
17021	367	3002	64.7	O=C(NO)c1ccc(Cn2c(=O)[nH]c3cc(F)ccc32)cc1 [B3, 4-((5-fluoro-2-oxo-2,3-dihydro-1H-benzo[d]imidazol-1-yl)methyl)N-hydroxybenzamide]	–

Further lines, the compound ahead of its results:

SMILES	HDAC7/HDAC6 in vitro selectivity [1]	IC50 [1] [nM]	HDAC2/HDAC6 in vitro selectivity [2]	IC50 [2] [nM]	selectivity toward HDAC6 compared to HDAC7 (in words) [1]
COc1ccc2c(c1)ncn2Cc1ccc(C(=O)NO)cc1 [A12, N-hydroxy-4-((5-methoxy-1H-benzo[d]imidazol-1-yl)methyl)benzamide]	4070	883	1125	244	–
O=C(NO)c1ccc(Cn2c(C(F)(F)F)nc3ccccc32)cc1 [A1, N-hydroxy-4-((2-(trifluoromethyl)-1H-benzo[d]imidazol-1-yl)methyl)benzamide]	255	121	1230	581	–
Cc1ccc2c(c1)nc(C(F)(F)F)n2Cc1ccc(C(=O)NO)cc1 [A2, N-hydroxy-4-((5-methyl-2-(trifluoromethyl)-1H-benzo[d]imidazol-1-yl)methyl)benzamide]	348	106	553	169	–
COc1ccc2c(c1)nc(C(F)(F)F)n2Cc1ccc(C(=O)NO)cc1 [A6, N-hydroxy-4-((5-methoxy-2-(trifluoromethyl)-1H-benzo[d]imidazol-1-yl)methyl)benzamide]	1058	414	522	205	–
O=C(NO)c1ccc(Cn2c(C(F)(F)F)nc3cc(Cl)ccc32)cc1 [A4, 4-((5-chloro-2-(trifluoromethyl)-1H-benzo[d]imidazol-1-yl)methyl)-N-hydroxybenzamide]	323	374	259	300	–
O=C(NO)c1ccc(Cn2cnc3cc(Br)ccc32)cc1 [A11, 4-((5-bromo-1H-benzo[d]imidazol-1-yl)methyl)-N-hydroxybenzamide]	4265	71.1	1601	26.7	–
O=C(NO)c1ccc(Cn2cnc3ccccc32)cc1 [A7]	2606	255	1853	181	–
O=C(NO)c1ccc(Cn2c(C(F)(F)F)nc3cc(F)ccc32)cc1 [A3, 4-((5-fluoro-2-(trifluoromethyl)-1H-benzo[d]imidazol-1-yl)methyl)-N-hydroxybenzamide]	484	278	844	484	–
Cc1ccc2c(c1)ncn2Cc1ccc(C(=O)NO)cc1 [A8, N-hydroxy-4-((5-methyl-1H-benzo[d]imidazol-1-yl)methyl)benzamide]	1098	418	762	290	–
O=C(NO)c1ccc(Cn2cnc3cc(Cl)ccc32)cc1 [A10, 4-((5-chloro-1H-benzo[d]imidazol-1-yl)methyl)-N-hydroxybenzamide]	4029	278	1364	94.1	–
O=C(NO)c1ccc(Cn2c(C(F)(F)F)nc3cc(Br)ccc32)cc1 [A5, 4-((5-bromo-2-(trifluoromethyl)-1H-benzo[d]imidazol-l-yl)methyl)-N-hydroxybenzamide]	735	228	471	146	–
O=C(NO)c1ccc(Cn2cnc3cc(F)ccc32)cc1 [A9, 4-((5-fluoro-1H-benzo[d]imidazol-1-yl)methyl)-N-hydroxybenzamide]	4925	327	3132	208	–
